Results published in patent US5510332A, “Process to inhibit binding of the integrin α4 62 1 to VCAM-1 or fibronectin and linear peptides therefor” (priority 1994, dated 1996).
Where no end group is shown, it is not given here.

Legend:
[1] = biological target: T1, binding of the integrin α4 β1 to VCAM (Homo sapiens, UniProt P05556+P13612); assay: Cell-cell assay: 35S-labelled Ramos cells binding to VCAM expressing CHO cells; type: cell-based; details: single concentration at which SEQ ID NO:9 gives approximately 50% inhibition of adhesion; SEQ ID NO:9 = 1.00; >2.00 indicates little or no inhibition of VCAM-α4 β1 binding
T1 construct: endogenous in cells; host or cells: Ramos (human B-cell line) for endogenous α4β1; CHO cells stably transfected with human VCAM cDNA for the counter-receptor
Excerpt: The VCAM-1 binding assays involved assessing the ability of cells that express α4 β1 to bind cells expressing VCAM (cell-cell assay) or to bind purified VCAM protein (cell-protein assay). The integrin-expressing cell types used in these assays included the human B-cell line, Ramos, and the human promyelocytic line, HL-60. The cell-cell assay was used to compare the relative potency of peptides at a single dose. The cell-protein assay was used to generate dose response curves and determine IC50 values. A human VCAM cDNA was amplified by the polymerase chain reaction (PCR) from cDNA reverse transcribed from RNA isolated from human umbilical vein endothelial cells. The VCAM cDNA was ligated into a mammalian expression vector and electroporated into chinese hamster ovary (CHO) cells. Cells were grown in G418 selective media and clones expressing high levels of VCAM were selected by FACS analysis. VCAM expressing CHO cells and nontransfected CHO cells were plated in 48 well cluster dishes at a density of 50,000 cells/well 24 hour prior to assay. The dishes were washed with binding buffer (DMEM, 1% BSA, 1.0 mM MnCl2, 0.02% sodium azide, pH 7.4) immediately prior to assay. […] Unbound cells were removed by washing with binding buffer and the remaining bound cells were lysed with 50 mM Tris, pH 8.0, 150 mM NaCl, 1% SDS and transferred to scintillation vials for quantitation.

[2] = biological target: T2, binding of α4 β1 integrin to VCAM-1 (Homo sapiens, UniProt P05556+P13612); assay: Cell-protein assay: calcein-labelled Ramos cells binding to VCAM-mouse IgG fusion protein on magnetic beads; type: cell-based; details: less than about 100; assay format not stated
T2 construct: endogenous in cells; host or cells: Ramos (human B-cell line) for endogenous α4β1; the VCAM-mouse IgG fusion was made in house, secreted from transfected COS cells and captured on goat anti-mouse IgG Dynal beads
Excerpt: The VCAM-1 binding assays involved assessing the ability of cells that express α4 β1 to bind cells expressing VCAM (cell-cell assay) or to bind purified VCAM protein (cell-protein assay). The integrin-expressing cell types used in these assays included the human B-cell line, Ramos, and the human promyelocytic line, HL-60. The cell-cell assay was used to compare the relative potency of peptides at a single dose. The cell-protein assay was used to generate dose response curves and determine IC50 values.
An expression vector was designed such that a region of VCAM known to bind the integrin was-expressed as a fusion protein with mouse IgG. A cDNA containing the two N-terminal domains of human VCAM was generated by the polymerase chain reaction (PCR) from a full length VCAM cDNA. Similarly, a cDNA containing the hinge, CH2 and CH3 regions of mouse IgG2A was amplified by PCR from cDNA made from total RNA isolated from the hybridoma cell line 402C10. The VCAM cDNA was ligated to the mouse IgG cDNA and cloned into a mammalian expression vector. […] The media was collected and active protein was purified by immunoprecipitation using Dynal magnetic polystyrene beads coated with goat anti-mouse IgG. Following immunoprecipitation, the beads bound Ramos cells that expressed the integrin α4 β1.
Ramos cells were fluorescently labeled with calcein AM (Molecular Probes) and resuspended in 1 ml of binding buffer (Hanks' balanced salt solution, pH 7.4, 1.0 mM CaCl2, 1.0 mM MgCl2 and 1.0 mM MnCl2). The beads (10 μl, 4×10^6 beads/ml) were placed in wells of a 96-well microtiter dish with 10 μl of peptide at various concentrations. The beads were incubated with 10 μl of labeled cells (10^7 cells/ml) for 10 min at room temperature. Following immobilization of the beads onto the plastic with a magnet, unbound cells were removed by washing three times with binding buffer. The remaining bound cells were lysed in 50 mM Tris, pH 7.4, 5.0 mM EDTA, 1.0% NP-40 and quantitated by fluorimetry using a Millipore Cytofluor 2350 fluorimeter. Dose response curves were calculated and IC50 values determined. Peptides having the amino acid residue sequences of SEQ ID NOs:8-102 were tested for their ability to inhibit the binding of α4 β1 integrin to VCAM-1.

T1 sequence (P13612 34-1032): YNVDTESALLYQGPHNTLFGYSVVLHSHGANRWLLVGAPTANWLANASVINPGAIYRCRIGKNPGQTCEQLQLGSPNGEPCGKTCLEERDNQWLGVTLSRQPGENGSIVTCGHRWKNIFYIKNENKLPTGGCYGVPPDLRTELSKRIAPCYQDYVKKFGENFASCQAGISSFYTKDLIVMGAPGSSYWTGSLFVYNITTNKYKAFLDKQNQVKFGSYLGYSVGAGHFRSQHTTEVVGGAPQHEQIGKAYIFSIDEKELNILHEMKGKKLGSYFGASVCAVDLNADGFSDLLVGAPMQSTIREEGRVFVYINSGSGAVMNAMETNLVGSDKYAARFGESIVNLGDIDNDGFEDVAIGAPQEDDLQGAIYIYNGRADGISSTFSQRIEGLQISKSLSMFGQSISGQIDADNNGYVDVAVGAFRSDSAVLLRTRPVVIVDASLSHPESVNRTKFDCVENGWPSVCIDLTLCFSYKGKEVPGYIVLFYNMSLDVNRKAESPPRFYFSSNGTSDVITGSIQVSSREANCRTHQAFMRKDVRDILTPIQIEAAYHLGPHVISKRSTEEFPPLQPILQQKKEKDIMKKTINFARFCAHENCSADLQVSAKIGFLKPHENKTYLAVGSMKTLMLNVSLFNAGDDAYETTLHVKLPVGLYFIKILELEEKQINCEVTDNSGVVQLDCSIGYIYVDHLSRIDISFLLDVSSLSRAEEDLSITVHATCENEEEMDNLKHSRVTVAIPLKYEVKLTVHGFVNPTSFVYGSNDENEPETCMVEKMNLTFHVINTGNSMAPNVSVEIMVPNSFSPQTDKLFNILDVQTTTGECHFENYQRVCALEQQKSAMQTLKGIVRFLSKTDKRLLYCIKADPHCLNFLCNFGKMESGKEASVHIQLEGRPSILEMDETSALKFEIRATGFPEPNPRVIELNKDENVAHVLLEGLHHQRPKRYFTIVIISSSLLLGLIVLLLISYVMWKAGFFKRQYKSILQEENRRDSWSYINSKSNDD
T1 sequence (P05556 21-798): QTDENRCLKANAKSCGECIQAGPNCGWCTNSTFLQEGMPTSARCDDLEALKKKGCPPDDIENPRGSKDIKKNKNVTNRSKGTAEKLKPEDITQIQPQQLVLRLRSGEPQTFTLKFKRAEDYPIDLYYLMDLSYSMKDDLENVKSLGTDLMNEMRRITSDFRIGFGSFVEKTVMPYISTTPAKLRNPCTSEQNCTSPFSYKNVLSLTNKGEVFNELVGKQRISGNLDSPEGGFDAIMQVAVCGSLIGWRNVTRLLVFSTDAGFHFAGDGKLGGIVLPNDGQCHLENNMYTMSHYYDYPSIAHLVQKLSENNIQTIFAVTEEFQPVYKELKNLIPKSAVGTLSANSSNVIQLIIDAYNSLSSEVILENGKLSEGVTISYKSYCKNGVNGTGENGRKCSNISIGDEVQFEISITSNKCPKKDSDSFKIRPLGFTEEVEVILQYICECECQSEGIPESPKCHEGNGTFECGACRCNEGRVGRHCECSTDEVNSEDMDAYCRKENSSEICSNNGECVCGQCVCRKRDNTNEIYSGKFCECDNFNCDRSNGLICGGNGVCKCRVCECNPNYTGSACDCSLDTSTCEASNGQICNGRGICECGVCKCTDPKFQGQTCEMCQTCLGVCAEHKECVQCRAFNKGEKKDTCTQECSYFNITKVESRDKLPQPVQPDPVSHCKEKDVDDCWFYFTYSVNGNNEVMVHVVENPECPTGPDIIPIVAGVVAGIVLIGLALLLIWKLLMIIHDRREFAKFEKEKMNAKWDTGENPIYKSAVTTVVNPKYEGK
T2 sequence (P13612 34-1032): as the sequence (P13612 34-1032) above
T2 sequence (P05556 21-798): as the sequence (P05556 21-798) above

Substance	relative quantity of adhered cells in relationship to peptide SEQ ID NO:9 [1]	peptide concentration at which binding of α4 β1 to VCAM-1 is significantly inhibited [2]
GPEWLFVP-NH2 [SEQ ID NO:9 D→F, Gly-Pro-GluoTrp-Leu-Phe-Val-Pro-amide]	1.94	
GPIWLDVP-NH2 [SEQ ID NO:9 E→I, Gly-Pro-Ile-Trp-Leu-Asp-Val-Pro-amide]	1.44	
GPEWLQVP-NH2 [SEQ ID NO:9 D→Q, Gly-Pro-Glu-Trp-Leu-Gln-Val-Pro-amide]	2.35	
GPLWLDVP-NH2 [SEQ ID NO:9 E→L, Gly-Pro-Leu-Trp-Leu-Asp-Val-Pro-amide]	1.62	
GPDWLDVP-NH2 [SEQ ID NO:9 E→D, Gly-Pro-Asp-Trp-Leu-Asp-Val-Pro-amide]	1.54	
GPTWLDVP-NH2 [SEQ ID NO:9 E→T, Gly-Pro-Thr-Trp-Leu-Asp-Val-Pro-amide]	0.98	
GPEWLMVP-NH2 [SEQ ID NO:9 D→M, Gly-Pro-Glu-Trp-Leu-Met-Val-Pro-amide]	1.76	
GPSWLDVP-NH2 [SEQ ID NO:9 E→S, Gly-Pro-Ser-Trp-Leu-Asp-Val-Pro-amide]	0.85	
GPKWLDVP-NH2 [SEQ ID NO:9 E→K, Gly-Pro-Lys-Trp-Leu-Asp-Val-Pro-amide]	1.34	
GPFWLDVP-NH2 [SEQ ID NO:9 E→F, Gly-Pro-Phe-Trp-Leu-Asp-Val-Pro-amide]	1.64	
GPEWLCVP-NH2 [SEQ ID NO:9 D→C, Gly-Pro-Glu-Trp-Leu-Cys-Val-Pro-amide]	1.78	
GPWWLDVP-NH2 [SEQ ID NO:9 E→W, Gly-Pro-Trp-Trp-Leu-Asp-Val-Pro-amide]	1.17	
GPNWLDVP-NH2 [SEQ ID NO:9 E→N, Gly-Pro-Asn-Trp-Leu-Asp-Val-Pro-amide]	0.94	
GPRWLDVP-NH2 [SEQ ID NO:9 E→R, Gly-Pro-Arg-Trp-Leu-Asp-Val-Pro-amide]	1.52	
GPAWLDVP-NH2 [SEQ ID NO:9 E→A, Gly-Pro-Ala-Trp-Leu-Asp-Val-Pro-amide]	1.47	
GPVWLDVP-NH2 [SEQ ID NO:9 E→V, Gly-Pro-Val-Trp-Leu-Asp-Val-Pro-amide]	1.04	
GPHWLDVP-NH2 [SEQ ID NO:9 E→H, Gly-Pro-His-Trp-Leu-Asp-Val-Pro-amide]	1.23	
GPEWLDDP-NH2 [SEQ ID NO:9 V→D, Gly-Pro-Glu-Trp-Leu-Asp-Asp-Pro-amide]	2.39	
GPMWLDVP-NH2 [SEQ ID NO:9 E→M, Gly-Pro-Met-Trp-Leu-Asp-Val-Pro-amide]	1.42	
GPPWLDVP-NH2 [SEQ ID NO:9 E→P, Gly-Pro-Pro-Trp-Leu-Asp-Val-Pro-amide]	0.98	
GPEWLKVP-NH2 [SEQ ID NO:9 D→K, Gly-Pro-Glu-Trp-Leu-Lys-Val-Pro-amide]	1.74	
GPEWLRVP-NH2 [SEQ ID NO:9 D→R, Gly-Pro-Glu-Trp-Leu-Arg-Val-Pro-amide]	2.14	
GPQWLDVP-NH2 [SEQ ID NO:9 E→Q, Gly-ProoGln-Trp-Leu-Asp-Val-Pro-amide]	0.93	
GPEWLHVP-NH2 [SEQ ID NO:9 D→H, Gly-Pro-Glu-Trp-Leu-His-Val-Pro-amide]	1.74	
GPGWLDVP-NH2 [SEQ ID NO:9 E→G, Gly-Pro-Gly-Trp-Leu-Asp-Val-Pro-amide]	1.33	
GPYWLDVP-NH2 [SEQ ID NO:9 E→Y, Gly-Pro-Tyr-Trp-Leu-Asp-Val-Pro-amide]	0.96	
GPEWLPVP-NH2 [SEQ ID NO:9 D→P, Gly-Pro-Glu-Trp-Leu-Pro-Val-Pro-amide]	2.19	
GPEWLEVP-NH2 [SEQ ID NO:9 D→E, Gly-Pro-Glu-Trp-Leu-Glu-Val-Pro-amide]	1.77	
GPCWLDVP-NH2 [SEQ ID NO:9 E→C, Gly-Pro-Cys-Trp-Leu-Asp-Val-Pro-amide]	1.49	

Next, values leading:

relative quantity of adhered cells in relationship to peptide SEQ ID NO:9 [1]	peptide concentration at which binding of α4 β1 to VCAM-1 is significantly inhibited [2]	Substance
1.81		GPEWLDIP-NH2 [SEQ ID NO:9 V→I]
2.31		GPEWLDNP-NH2 [SEQ ID NO:9 V→N]
2.33		GPEWLDEP-NH2 [SEQ ID NO:9 V→E, Gly-Pro-Glu-Trp-Leu-Asp-Glu-Pro-amide]
	less than 100 μM	EWLDV-NH2 [SEQ ID NO:13, Glu-Trp-Leu-Asp-Val-amide]
1.64		GPEALDVP-NH2 [SEQ ID NO:9 W→A, Gly-Pro-Glu-Ala-Leu-Asp-Val-Pro-amide]
2.45		GPEWLDPP-NH2 [SEQ ID NO:9 V→P]
	less than 100 μM	EWLDV-OH [SEQ ID NO:14, Glu-Trp-Leu-Asp-Val-acid]
1.67		GPEWLDGP-NH2 [SEQ ID NO:9 V→G]
1.08		GPEWLDWP-NH2 [SEQ ID NO:9 V→W, Gly-Pro-Glu-Trp-Leu-Asp-Trp-Pro-amide]
1.62		GPEDLDVP-NH2 [SEQ ID NO:9 W→D, Gly-Pro-Glu-Asp-Leu-Asp-Val-Pro-amide]
1.13		GPEWLDFP-NH2 [SEQ ID NO:9 V→F, Gly-Pro-Glu-Trp-Leu-Asp-Phe-Pro-amide]
1.54		GPEWLDLP-NH2 [SEQ ID NO:9 V→L]
2.68		GPEWLDKP-NH2 [SEQ ID NO:9 V→K]
1.54		GPEWLDSP-NH2 [SEQ ID NO:9 V→S]
1.97		GPEWLDQP-NH2 [SEQ ID NO:9 V→Q]
1.77		GPEWLDHP-NH2 [SEQ ID NO:9 V→H]
0.80		GPEWLDYP-NH2 [SEQ ID NO:9 V→Y, Gly-Pro-Glu-Trp-Leu-Asp-Tyr-Pro-amide]
2.46		GPEWLDMP-NH2 [SEQ ID NO:9 V→M]
1.52		GPEWLDRP-NH2 [SEQ ID NO:9 V→R]
1.45		GPECLDVP-NH2 [SEQ ID NO:9 W→C, Gly-Pro-Glu-Cys-Leu-Asp-Val-Pro-amide]
